Assay [1] addresses T1, tiTac3ra (Oreochromis niloticus, UniProt A0A075QPN8). Conditions: read-out: EC50 tiTac3ra SRE; SRE-Luc reporter (PKC/Ca2+), COS-7 cells, mean ± SEM.
Description: (§2) Receptor transactivation assays were generally performed according to Biran et al. ([10]). Briefly, in order to study the signaling pathways of the novel fish NKB and NKF analogs, the entire coding sequence of tiTac3ra (GenBank accession no. KF471674), tiTac3rb (GenBank accession no. KF471675), zfTac3ra (GenBank accession no. JF317292) and zfTac3rb (GenBank accession no. JF317293) were inserted into pcDNA3.1 (Invitrogen). To differentiate between the protein kinase A (PKA) and PKC signal transduction pathways, we used a sensitive luciferase (Luc) reporter gene assay. […] Three micrograms of each construct together with three micrograms of a luciferase reporter plasmid were transiently co-transfected into COS-7 cells. […] EC50 values were calculated from dose response curves by means of computerized non-linear curve fitting on baseline-corrected (control) values using Prism version 6 software (GraphPad).
The target of assay [2] is T1, tiTac3ra. Kind of assay: cell-based. Conditions: COS-7 cells, mean ± SEM.
Description: as §2
A further assay deals with tiTac3rb (Oreochromis niloticus, UniProt A0A075QUD7). Description: cell-based. As to conditions: COS-7 cells, mean ± SEM.
The next assay addresses T2, huTAC3R (NK3R) (Homo sapiens, UniProt P29371).
T2 construct: host or cells: COS-7
T2 sequence (P29371 1-465): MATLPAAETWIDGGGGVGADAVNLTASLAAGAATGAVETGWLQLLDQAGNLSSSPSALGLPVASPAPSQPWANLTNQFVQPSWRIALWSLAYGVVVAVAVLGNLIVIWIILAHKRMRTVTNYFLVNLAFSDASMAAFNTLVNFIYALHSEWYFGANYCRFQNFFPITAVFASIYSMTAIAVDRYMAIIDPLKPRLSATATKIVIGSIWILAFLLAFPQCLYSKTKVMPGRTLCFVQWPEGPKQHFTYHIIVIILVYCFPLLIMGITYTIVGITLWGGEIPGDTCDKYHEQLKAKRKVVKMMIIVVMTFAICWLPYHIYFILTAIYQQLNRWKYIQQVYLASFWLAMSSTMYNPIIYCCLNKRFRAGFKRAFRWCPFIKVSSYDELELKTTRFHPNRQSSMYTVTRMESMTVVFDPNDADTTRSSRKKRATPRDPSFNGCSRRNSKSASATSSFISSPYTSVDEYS
Kind of assay: CRE-/SRE-Luc receptor transactivation reporter assay in COS-7 cells, human TAC3R. In kind it is cell-based. As to conditions: mean ± SEM. From the text:
(§1) Receptor transactivation assays were generally performed according to Biran et al. ([10]). Briefly, in order to study the signaling pathways of the novel fish NKB and NKF analogs, the entire coding sequence of tiTac3ra (GenBank accession no. KF471674), tiTac3rb (GenBank accession no. KF471675), zfTac3ra (GenBank accession no. JF317292) and zfTac3rb (GenBank accession no. JF317293) were inserted into pcDNA3.1 (Invitrogen). To differentiate between the protein kinase A (PKA) and PKC signal transduction pathways, we used a sensitive luciferase (Luc) reporter gene assay. […] The cDNA clone for human TAC3R was obtained from the Missouri S&T cDNA Resource Center (www.cdna.org). Three micrograms of each construct together with three micrograms of a luciferase reporter plasmid were transiently co-transfected into COS-7 cells. […] EC50 values were calculated from dose response curves by means of computerized non-linear curve fitting on baseline-corrected (control) values using Prism version 6 software (GraphPad).
Background: In a reporter assay the amount or activity of a reporter protein is the signal.

The test system of a further assay is female tilapia. Description: In vivo effect on GH, FSH and LH plasma levels (ELISA) after IP injection. Details: species or system Nile tilapia (O. niloticus). Conditions: peptides/analogs 100 μg/kg BW. How it is done:
Adult female tilapia (BW 89.29 ± 32.93 g) were injected IP with saline, sGnRH analog ([…]; 10 μg/kg BW; [[…],[…]-Net]-mammalian GnRH; Bachem), tiNKB, tiNKF, or their analogs at 100 μg/kg BW (n = 8 fish per group). The fish were bled from the caudal blood vessels into heparinized syringes 1, 2, 4, 8, and 24 h after injection and blood was centrifuged (3,200 rpm for 30 min at 4°C) to obtain plasma samples, which were stored at -20°C until assayed. This time course is according to standard protocols used previously ([28], [29]) to test the effect of GnRH and other hypothalamic neuropeptides on circulating levels of LH, FSH, and GH in tilapia. Blood samples were collected from the caudal vasculature. Three independent experiments were carried out for the in vivo studies. Levels of LH, FSH, and GH in the plasma were measured by specific competitive ELISAs developed for tilapia ([30], [31]) based on recombinant ([…] or rtiGH. Primary antisera was produced against […]β, or rtGH ([31]), and […]βα ([28]) or rtGH was used for generating the standard curves.
In general terms: In an ELISA, binding on a coated surface is turned into a signal by an enzyme label.

Another assay deals with female tilapia pituitary. Description: In vivo effect on pituitary gh, fsh and lh mRNA expression (real-time PCR). On the set-up: species or system Nile tilapia (O. niloticus). Conditions: 24 h post IP injection, 100 μg/kg BW. How it is done: Adult female tilapia (BW 89.29 ± 32.93 g) were injected IP with saline, sGnRH analog ([…]; 10 μg/kg BW; [[…],[…]-Net]-mammalian GnRH; Bachem), tiNKB, tiNKF, or their analogs at 100 μg/kg BW (n = 8 fish per group). The fish were bled from the caudal blood vessels into heparinized syringes 1, 2, 4, 8, and 24 h after injection and blood was centrifuged (3,200 rpm for 30 min at 4°C) to obtain plasma samples, which were stored at -20°C until assayed. This time course is according to standard protocols used previously ([28], [29]) to test the effect of GnRH and other hypothalamic neuropeptides on circulating levels of LH, FSH, and GH in tilapia. Blood samples were collected from the caudal vasculature. Three independent experiments were carried out for the in vivo studies. Pituitaries and three parts of the brain [the olfactory bulbs and telencephalon (front brain), the optic tectum and diencephalon (mid brain), and the cerebellum (hind brain)] were harvested at the end of each in vivo experiment, snap-frozen in liquid nitrogen, and stored at -80°C until extraction. Total RNA was extracted by phenol-chloroform using TRIzol reagent (Invitrogen) and precipitated with ethanol, and 1 μg was used as a template for cDNA synthesis using Verso cDNA kit (Thermo Scientific, Waltham, MA). Real-time PCR analysis was performed according to Biran et al. ([10], [20]). The specificity of the amplification was tested at the end of the PCR by melting-curve analysis and sequencing the PCR products.

In a further assay the target is T3, zfTac3ra (Danio rerio, UniProt H6A6A7).
T3 sequence (H6A6A7 1-399): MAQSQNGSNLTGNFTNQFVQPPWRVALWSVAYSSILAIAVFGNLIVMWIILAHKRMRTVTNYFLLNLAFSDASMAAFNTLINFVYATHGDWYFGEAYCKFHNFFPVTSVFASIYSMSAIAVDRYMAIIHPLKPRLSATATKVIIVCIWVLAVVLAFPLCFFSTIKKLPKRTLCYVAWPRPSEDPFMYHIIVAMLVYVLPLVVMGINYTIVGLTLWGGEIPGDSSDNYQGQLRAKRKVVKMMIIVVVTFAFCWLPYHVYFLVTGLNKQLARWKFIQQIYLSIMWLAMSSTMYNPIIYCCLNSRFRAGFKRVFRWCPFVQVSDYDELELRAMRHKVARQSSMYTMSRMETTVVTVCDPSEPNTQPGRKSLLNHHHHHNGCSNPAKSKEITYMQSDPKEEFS
Description: CRE-/SRE-Luc receptor transactivation reporter assay in COS-7 cells, zebrafish Tac3ra. Conditions: mean ± SEM. In kind it is cell-based.
Text: as §1

A further assay deals with T4, zfTac3rb (Danio rerio, UniProt F1R3V0).
T4 sequence (F1R3V0 1-395): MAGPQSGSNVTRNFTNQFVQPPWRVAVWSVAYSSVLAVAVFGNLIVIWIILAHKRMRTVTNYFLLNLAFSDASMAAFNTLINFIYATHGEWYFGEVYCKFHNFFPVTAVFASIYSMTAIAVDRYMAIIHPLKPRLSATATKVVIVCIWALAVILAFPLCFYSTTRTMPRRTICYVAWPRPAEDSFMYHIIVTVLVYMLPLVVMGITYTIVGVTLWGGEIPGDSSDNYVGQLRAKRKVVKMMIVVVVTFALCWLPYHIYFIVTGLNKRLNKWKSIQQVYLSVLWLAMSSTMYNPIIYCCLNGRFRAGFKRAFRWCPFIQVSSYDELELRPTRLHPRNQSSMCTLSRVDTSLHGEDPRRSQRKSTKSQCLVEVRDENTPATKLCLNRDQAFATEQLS
Kind of assay: CRE-/SRE-Luc receptor transactivation reporter assay in COS-7 cells, zebrafish Tac3rb. In kind it is cell-based. Conditions: mean ± SEM.
Text: as §1

Where [3] appears, read: EC50 tiTac3ra CRE, CRE-Luc reporter (PKA/cAMP).
Setting [4] is: EC50 tiTac3rb CRE, CRE-Luc reporter (PKA/cAMP).
[5] abbreviates: EC50 tiTac3rb SRE, SRE-Luc reporter (PKC/Ca2+).
Setting [6] is: SRE-Luc reporter (PKC/Ca2+), read-out: EC50 huTAC3R (NK3R) SRE.
Setting [7] is: EC50 tiTac3ra SRE, SRE-Luc reporter (PKC/Ca2+).

From publication PMC6639853, “Deciphering Direct and Indirect Effects of Neurokinin B and GnRH in the Brain-Pituitary Axis of Tilapia” (Frontiers in Endocrinology, 2019) come the findings set out here.

Several values for one entry are separate records, joined by “and”; a condition that tells them apart may be missing. Equal entries are not always repeated. Where two headings read alike, the source gives them in different places. Starred links: 1 amine or outer side, 2 acyl side, 3 side chain; linkers in the order of their positions; H or OH if unused. Non-standard residues stand in square brackets, D forms with d. Residues, ends and D or L forms follow the SMILES beside them. NMeF = CN[C@@H](Cc1ccccc1)C(=O)O; pGlu = O=C1CC[C@@H](C(=O)O)N1; Suc = O=C(CCC(=O)[*:2])[*:1]

T1 sequence (A0A075QPN8 1-415): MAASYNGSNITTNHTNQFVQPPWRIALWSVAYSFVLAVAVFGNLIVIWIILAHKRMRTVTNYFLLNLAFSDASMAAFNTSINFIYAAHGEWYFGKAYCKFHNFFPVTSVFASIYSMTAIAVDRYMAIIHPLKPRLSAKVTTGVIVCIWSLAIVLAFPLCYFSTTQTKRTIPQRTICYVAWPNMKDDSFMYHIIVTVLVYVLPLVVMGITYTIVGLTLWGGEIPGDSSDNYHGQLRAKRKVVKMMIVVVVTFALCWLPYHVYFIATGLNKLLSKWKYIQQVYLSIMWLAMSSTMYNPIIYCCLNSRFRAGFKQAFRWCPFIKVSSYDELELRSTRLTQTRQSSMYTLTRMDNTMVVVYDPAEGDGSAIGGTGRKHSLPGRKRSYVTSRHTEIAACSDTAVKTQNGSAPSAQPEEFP
Chain of tiTac3rb (A0A075QUD7 1-361): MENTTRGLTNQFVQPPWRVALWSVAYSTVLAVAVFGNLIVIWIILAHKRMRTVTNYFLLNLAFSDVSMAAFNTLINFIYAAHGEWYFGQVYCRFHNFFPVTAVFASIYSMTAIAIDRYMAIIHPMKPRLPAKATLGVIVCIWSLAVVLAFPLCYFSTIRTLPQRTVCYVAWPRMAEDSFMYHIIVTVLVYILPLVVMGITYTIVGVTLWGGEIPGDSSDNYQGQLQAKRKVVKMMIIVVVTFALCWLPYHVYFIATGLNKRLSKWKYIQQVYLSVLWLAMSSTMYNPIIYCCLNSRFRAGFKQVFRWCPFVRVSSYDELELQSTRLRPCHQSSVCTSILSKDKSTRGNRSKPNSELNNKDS
Description for tiTac3rb: as §2

On to `CSCC[C@H](NC(=O)[C@H](CC(C)C)NC(=O)CNC(=O)[C@H](Cc1ccccc1)N(C)C(=O)[C@H](Cc1ccccc1)NC(=O)[C@H](CC(=O)O)NC(=O)CCC(=O)O)C(N)=O` [Senktide] (Suc-DF[NMeF]GLM-NH2), for which the EC50 (as a rule, the concentration needed to bring the measured effect to its halfway point) was found to be 128 ± 35 nM on tiTac3ra [1], 14.1 ± 0.61 nM on tiTac3ra [2] (setting [3]), 3541 ± 1.47 nM on tiTac3rb (setting [4]) and 50.16 ± 0.17 nM at tiTac3rb (setting [5]).
With `CC[C@H](C)[C@H](NC(=O)[C@H](Cc1ccccc1)NC(=O)[C@@H](NC(=O)[C@H](CC(=O)O)NC(=O)[C@H](CC(=O)O)NC(=O)[C@H](CCSC)NC(=O)[C@@H]1CCC(=O)N1)[C@@H](C)CC)C(=O)NCC(=O)N[C@@H](CC(C)C)C(=O)N[C@@H](CCSC)C(N)=O` [tiNKB] ([pGlu]MDDIFIGLM-NH2), the EC50 at huTAC3R (NK3R) (CRE-Luc reporter (PKA/cAMP), read-out: EC50 huTAC3R (NK3R) CRE) was found to be 3.38 ± 0.42 nM. Also, the half-maximal effective concentration (EC50) at huTAC3R (NK3R) (setting [6]) is 0.02 nM. In the assay with female tilapia, the “time post-injection at which plasma FSH was first increased” value is reported as 2 h and the “time post-injection at which plasma GH was first increased” value is recorded as 1 h. Moreover, in the assay on female tilapia (sGnRHa 10 μg/kg BW), the “duration of increased plasma LH post-injection” value is listed as “up to 4 h” and the “time post-injection at which plasma LH was first increased” value is 2 h. For the same compound, in the assay on female tilapia pituitary, the “FSHβ mRNA expression in pituitary relative to control” value was “increased”, the “GH mRNA expression in pituitary relative to control” value was “increased” and the “LHβ mRNA expression in pituitary relative to control” value was “increased”. The 50% effective concentration (EC50) at tiTac3ra [2] (setting [3]) was 0.8 nM and 0.81 nM. Besides, at tiTac3ra [2] (setting [7]), a half-maximal effect (EC50) was put at 7.41 ± 0.44 nM. Moreover, the concentration giving a half-maximal response (EC50) on tiTac3rb (setting [4]) worked out at 26.5 ± 0.27 nM.
As to `CSCC[C@H](NC(=O)[C@H](CC(C)C)NC(=O)CNC(=O)[C@H](C(C)C)N(C)C(=O)[C@H](Cc1ccccc1)NC(=O)[C@H](CO)NC(=O)[C@H](CC(=O)O)NC(=O)CCC(=O)O)C(N)=O` [NKF analog, Succ-Asp-Ser-Phe-N(Me)Val-Gly-Leu-Met-NH2], the EC50 on huTAC3R (NK3R) (setting [6]) was 43.2 ± 1.06 nM; on zfTac3ra (CRE-Luc reporter (PKA/cAMP), read-out: EC50 zfTac3ra CRE), 0.47 nM and 0.474 nM; at zfTac3ra (SRE-Luc reporter (PKC/Ca2+), read-out: EC50 zfTac3ra SRE), 1.15 ± 0.4 nM; at zfTac3rb (CRE-Luc reporter (PKA/cAMP), read-out: EC50 zfTac3rb CRE), 2.69 ± 0.38 nM; at zfTac3rb (SRE-Luc reporter (PKC/Ca2+), read-out: EC50 zfTac3rb SRE), 25.74 ± 0.24 nM; at tiTac3ra [2] (setting [3]), 2.57 ± 0.33 nM. Also, the concentration giving a half-maximal response (EC50) on tiTac3ra [2] (setting [7]) came out at 1.73 ± 0.46 nM; on tiTac3rb (setting [4]), 160.6 ± 0.42 nM; on tiTac3rb (setting [5]) it was 74.89 ± 0.66 nM. In addition, in the assay with female tilapia, the “time post-injection at which plasma FSH was first increased” value turned out to be 2 h. Moreover, the “time post-injection at which plasma LH was first increased” value in the assay on female tilapia (sGnRHa 10 μg/kg BW) was 1 h. The “GH mRNA expression in pituitary relative to control” value with female tilapia pituitary was “increased”. For the same compound, the “LHβ mRNA expression in pituitary relative to control” value in the assay on female tilapia pituitary was “increased”.
